Test results from ChEMBL document CHEMBL1126305, “Synthesis and antiviral properties of (+/-)-5'-noraristeromycin and related purine carbocyclic nucleosides. A new lead for anti-human cytomegalovirus agent design” (1992).
≈ marks a conversion by molar mass, not a printed value.

Each compound was assayed on Vero (assay: Minimum inhibitory concentration required to reduce virus induced cytopathicity by 50% was determined against parainfluenza 3 virus in Vero cells). Settings: Chlorocebus sabaeus.
Assay type: functional, Homo sapiens
Work on `Nc1ncnc2c1ncn2[C@@H]1C=C(CO)[C@@H](O)[C@H]1O` [NEOPLANOCIN A] yielded an MIC of 0.4 µg/mL (≈ 1.52 µM).
`Nc1ncnc2c1ncn2[C@@H]1C[C@H](O)[C@@H](O)[C@H]1O` [NORARISTEROMYCIN] showed an MIC of 0.4 µg/mL (≈ 1.59 µM).

What follows are compounds tested on E6SM (assay: Minimum inhibitory concentration required to reduce virus induced cytopathicity by 50% was determined against HSV-1 virus in E6SM cells). Settings: Homo sapiens.
Assay type: functional
For `Nc1ncnc2c1ncn2[C@@H]1C=C(CO)[C@@H](O)[C@H]1O` [NEOPLANOCIN A], the MIC was > 40 µg/mL.
Work on `Nc1ncnc2c1ncn2[C@@H]1C[C@H](O)[C@@H](O)[C@H]1O` [NORARISTEROMYCIN] yielded an MIC of 200 µg/mL (≈ 796 µM).

Each compound was assayed on HeLa (assay: Minimum inhibitory concentration required to reduce virus induced cytopathicity by 50% was determined against vesicular stomatitis virus in HeLa cells). Settings: Homo sapiens.
Assay type: functional
In the case of `Nc1ncnc2c1ncn2[C@@H]1C=C(CO)[C@@H](O)[C@H]1O` [NEOPLANOCIN A], the MIC was 0.2 µg/mL (≈ 0.76 µM).
For `Nc1ncnc2c1ncn2[C@@H]1C[C@H](O)[C@@H](O)[C@H]1O` [NORARISTEROMYCIN], the MIC was 0.07 µg/mL (≈ 0.279 µM).

Each compound was assayed on Vero (assay: Minimum inhibitory concentration required to reduce virus induced cytopathicity by 50% was determined against semliki forest virus in Vero cells). Settings: Chlorocebus sabaeus.
Assay type: functional
With `Nc1ncnc2c1ncn2[C@@H]1C=C(CO)[C@@H](O)[C@H]1O` [NEOPLANOCIN A] the MIC was > 40 µg/mL.
With `Nc1ncnc2c1ncn2[C@@H]1C[C@H](O)[C@@H](O)[C@H]1O` [NORARISTEROMYCIN] the MIC was > 200 µg/mL.

What follows are compounds tested on Vero (assay: Minimum inhibitory concentration required to reduce virus induced cytopathicity by 50% was determined against reo type 1 virus in Vero cells). Settings: Chlorocebus sabaeus.
Assay type: functional
`Nc1ncnc2c1ncn2[C@@H]1C=C(CO)[C@@H](O)[C@H]1O` [NEOPLANOCIN A] gave an MIC of 0.4 µg/mL (≈ 1.52 µM).
With `Nc1ncnc2c1ncn2[C@@H]1C[C@H](O)[C@@H](O)[C@H]1O` [NORARISTEROMYCIN] the MIC was 0.07 µg/mL (≈ 0.279 µM).

Each compound was assayed on Vero (assay: Minimum inhibitory concentration required to reduce virus induced cytopathicity by 50% was determined against measles virus in Vero cells). Settings: Chlorocebus sabaeus.
Assay type: functional
`Nc1ncnc2c1ncn2[C@@H]1C=C(CO)[C@@H](O)[C@H]1O` [NEOPLANOCIN A] gave an MIC of 0.2 µg/mL (≈ 0.76 µM).
In the case of `Nc1ncnc2c1ncn2[C@@H]1C[C@H](O)[C@@H](O)[C@H]1O` [NORARISTEROMYCIN], the MIC was 0.4 µg/mL (≈ 1.59 µM).

These compounds were tested on HEL (assay: Minimum inhibitory concentration required to reduce virus induced cytopathicity by 50% was determined against TK- VZV virus in HEL cells). Settings: Homo sapiens.
Assay type: functional
`Nc1ncnc2c1ncn2[C@@H]1C=C(CO)[C@@H](O)[C@H]1O` [NEOPLANOCIN A] gave an MIC of 5 µg/mL (≈ 19 µM).
Work on `Nc1ncnc2c1ncn2[C@@H]1C[C@H](O)[C@@H](O)[C@H]1O` [NORARISTEROMYCIN] yielded an MIC of 40 µg/mL (≈ 159 µM).

What follows are compounds tested on Vero (assay: Minimum inhibitory concentration required to reduce virus induced cytopathicity by 50% was determined against junin virus in Vero cells). Settings: Chlorocebus sabaeus.
Assay type: functional
`Nc1ncnc2c1ncn2[C@@H]1C=C(CO)[C@@H](O)[C@H]1O` [NEOPLANOCIN A] showed an MIC of 0.4 µg/mL (≈ 1.52 µM).
Work on `Nc1ncnc2c1ncn2[C@@H]1C[C@H](O)[C@@H](O)[C@H]1O` [NORARISTEROMYCIN] yielded an MIC of 0.5 µg/mL (≈ 1.99 µM).

Each compound was assayed on HeLa (assay: Minimum inhibitory concentration required to reduce virus induced cytopathicity by 50% was determined against coxsackie B4 virus in HeLa cells). Settings: Homo sapiens.
Assay type: functional
For `Nc1ncnc2c1ncn2[C@@H]1C=C(CO)[C@@H](O)[C@H]1O` [NEOPLANOCIN A], the MIC was > 40 µg/mL.
For `Nc1ncnc2c1ncn2[C@@H]1C[C@H](O)[C@@H](O)[C@H]1O` [NORARISTEROMYCIN], the MIC was > 200 µg/mL.

The compounds below were run on HeLa (assay: Minimum inhibitory concentration required to reduce virus induced cytopathicity by 50% was determined against polio 1 virus in HeLa cells). Settings: Homo sapiens.
Assay type: functional
In the case of `Nc1ncnc2c1ncn2[C@@H]1C=C(CO)[C@@H](O)[C@H]1O` [NEOPLANOCIN A], the MIC was > 10 µg/mL.
`Nc1ncnc2c1ncn2[C@@H]1C[C@H](O)[C@@H](O)[C@H]1O` [NORARISTEROMYCIN] was tested, and the MIC was > 200 µg/mL.

These compounds were tested on E6SM (assay: Minimum inhibitory concentration required to reduce virus induced cytopathicity by 50% was determined against vesicular stomatitis virus in E6SM cells). Settings: Homo sapiens.
Assay type: functional
Work on `Nc1ncnc2c1ncn2[C@@H]1C=C(CO)[C@@H](O)[C@H]1O` [NEOPLANOCIN A] yielded an MIC of 0.2 µg/mL (≈ 0.76 µM).
`Nc1ncnc2c1ncn2[C@@H]1C[C@H](O)[C@@H](O)[C@H]1O` [NORARISTEROMYCIN] gave an MIC of 0.07 µg/mL (≈ 0.279 µM).

These compounds were tested on Vero (assay: Minimum inhibitory concentration required to reduce virus induced cytopathicity by 50% was determined against tacaribe virus in Vero cells). Settings: Chlorocebus sabaeus.
Assay type: functional, Homo sapiens
With `Nc1ncnc2c1ncn2[C@@H]1C=C(CO)[C@@H](O)[C@H]1O` [NEOPLANOCIN A] the MIC was 0.4 µg/mL (≈ 1.52 µM).
`Nc1ncnc2c1ncn2[C@@H]1C[C@H](O)[C@@H](O)[C@H]1O` [NORARISTEROMYCIN] was tested, and the MIC was 1 µg/mL (≈ 3.98 µM).

Each compound was assayed on HeLa (assay: Minimum inhibitory concentration required to reduce virus induced cytopathicity by 50% was determined against respiratory syncytial virus in HeLa cells). Settings: Homo sapiens.
Assay type: functional
`Nc1ncnc2c1ncn2[C@@H]1C=C(CO)[C@@H](O)[C@H]1O` [NEOPLANOCIN A] was tested, and the MIC was 0.2 µg/mL (≈ 0.76 µM).
For `Nc1ncnc2c1ncn2[C@@H]1C[C@H](O)[C@@H](O)[C@H]1O` [NORARISTEROMYCIN], the MIC was 2 µg/mL (≈ 7.96 µM).

What follows are compounds tested on HEL (assay: Minimum inhibitory concentration required to reduce virus induced cytopathicity by 50% was determined against VZV virus in HEL cells). Settings: Homo sapiens.
Assay type: functional
In the case of `Nc1ncnc2c1ncn2[C@@H]1C=C(CO)[C@@H](O)[C@H]1O` [NEOPLANOCIN A], the MIC was 8 µg/mL (≈ 30.4 µM).
`Nc1ncnc2c1ncn2[C@@H]1C[C@H](O)[C@@H](O)[C@H]1O` [NORARISTEROMYCIN] was tested, and the MIC was 65 µg/mL (≈ 259 µM).

These compounds were tested on MDCK (assay: Minimum inhibitory concentration required to reduce virus induced cytopathicity by 50% was determined against influenza A virus in MDCK cells). Settings: Canis lupus familiaris.
Assay type: functional
`Nc1ncnc2c1ncn2[C@@H]1C=C(CO)[C@@H](O)[C@H]1O` [NEOPLANOCIN A] was tested, and the MIC was > 20 µg/mL.
For `Nc1ncnc2c1ncn2[C@@H]1C[C@H](O)[C@@H](O)[C@H]1O` [NORARISTEROMYCIN], the MIC was > 100 µg/mL.

Each compound was assayed on HEL (assay: (§1) Minimum inhibitory concentration required to reduce virus induced cytopathicity by 50% was determined against HCMV virus in HEL cells). Settings: Homo sapiens.
Assay type: functional
Work on `Nc1ncnc2c1ncn2[C@@H]1C=C(CO)[C@@H](O)[C@H]1O` [NEOPLANOCIN A] yielded an MIC of 0.4 µg/mL (≈ 1.52 µM).

Species on record: Homo sapiens
Assay: as §1
Assay type: functional
Settings: not given
`Nc1ncnc2c1ncn2[C@@H]1C[C@H](O)[C@@H](O)[C@H]1O` [NORARISTEROMYCIN] showed an MIC of 0.4 µg/mL (≈ 1.59 µM).

The compounds below were run on E6SM (assay: Minimum inhibitory concentration required to reduce virus induced cytopathicity by 50% was determined against TK- HSV-1 virus in E6SM cells). Settings: Homo sapiens.
Assay type: functional
For `Nc1ncnc2c1ncn2[C@@H]1C=C(CO)[C@@H](O)[C@H]1O` [NEOPLANOCIN A], the MIC was 4 µg/mL (≈ 15.2 µM).
`Nc1ncnc2c1ncn2[C@@H]1C[C@H](O)[C@@H](O)[C@H]1O` [NORARISTEROMYCIN] showed an MIC of 20 µg/mL (≈ 79.6 µM).

The compounds below were run on Vero (assay: Minimum inhibitory concentration required to reduce virus induced cytopathicity by 50% was determined against coxsackie B4 virus in Vero cells). Settings: Chlorocebus sabaeus.
Assay type: functional
With `Nc1ncnc2c1ncn2[C@@H]1C=C(CO)[C@@H](O)[C@H]1O` [NEOPLANOCIN A] the MIC was > 40 µg/mL.
For `Nc1ncnc2c1ncn2[C@@H]1C[C@H](O)[C@@H](O)[C@H]1O` [NORARISTEROMYCIN], the MIC was > 200 µg/mL.

Each compound was assayed on MDCK (assay: Minimum inhibitory concentration required to reduce virus induced cytopathicity by 50% was determined against influenza B virus in MDCK cells). Settings: Canis lupus familiaris.
Assay type: functional
For `Nc1ncnc2c1ncn2[C@@H]1C=C(CO)[C@@H](O)[C@H]1O` [NEOPLANOCIN A], the MIC was > 20 µg/mL.
For `Nc1ncnc2c1ncn2[C@@H]1C[C@H](O)[C@@H](O)[C@H]1O` [NORARISTEROMYCIN], the MIC was > 100 µg/mL.

Each compound was assayed on E6SM (assay: Minimum inhibitory concentration required to reduce virus induced cytopathicity by 50% was determined against HSV-2 virus in E6SM cells). Settings: Homo sapiens.
Assay type: functional
With `Nc1ncnc2c1ncn2[C@@H]1C=C(CO)[C@@H](O)[C@H]1O` [NEOPLANOCIN A] the MIC was > 40 µg/mL.
With `Nc1ncnc2c1ncn2[C@@H]1C[C@H](O)[C@@H](O)[C@H]1O` [NORARISTEROMYCIN] the MIC was 300 µg/mL (≈ 1190 µM).

Each compound was assayed on E6SM (assay: Minimum inhibitory concentration required to reduce virus induced cytopathicity by 50% was determined against vaccinia virus in E6SM cells). Settings: Homo sapiens.
Assay type: functional
Compound `Nc1ncnc2c1ncn2[C@@H]1C=C(CO)[C@@H](O)[C@H]1O` [NEOPLANOCIN A] has an MIC of 0.2 µg/mL (≈ 0.76 µM).
For `Nc1ncnc2c1ncn2[C@@H]1C[C@H](O)[C@@H](O)[C@H]1O` [NORARISTEROMYCIN], the MIC was 0.3 µg/mL (≈ 1.19 µM).

These compounds were tested on Vero (assay: Minimum inhibitory concentration required to reduce virus induced cytopathicity by 50% was determined against sindbis virus in Vero cells). Settings: Chlorocebus sabaeus.
Assay type: functional
With `Nc1ncnc2c1ncn2[C@@H]1C=C(CO)[C@@H](O)[C@H]1O` [NEOPLANOCIN A] the MIC was > 40 µg/mL.
For `Nc1ncnc2c1ncn2[C@@H]1C[C@H](O)[C@@H](O)[C@H]1O` [NORARISTEROMYCIN], the MIC was > 200 µg/mL.
